# Assays:
# [1] = tested on: production of PGE2; test: Inhibition of PGE2 production in IL-1β-stimulated A549 cells (EIA); format: cell-based; conditions: Homo sapiens, IL-1β 1 ng/ml, 18 hours; for inhibition at 10 µM: compound 10 μM, na = not active at the experimental concentration; for IC50: negative logarithm of IC50, read-out: pIC50 PGE2 (converted)
# Description: (§1) This test allows evaluation of the inhibitory capability on the production of the PGE2 prostaglandins and the selectivity relative to the production of the PGF2α prostaglandins.
# (§2) The cell line A549, human pulmonary adenocarcinoma, was used, which is particularly sensitive to stimulation with pro-inflammatory cyokines, for instance IL-1β, and, in response to this stimulation, is particularly active in the production and release of two prostanoids: PGE2 and PGF2α (Thoren S. Jakobsson P-J, 2000).
# (§3) The cells were stimulated with IL-1β, (1 ng/ml) and simultaneously treated with the test compound for 18 hours in an appropriate culture medium (DMEM—Dulbecco's Modified Eagle's Medium) supplemented with 5% foetal calf serum and L-glutamine (4 mM final) in an incubator at 37° C. and at a CO2 concentration of 5%.
# (§4) After the incubation, the amount of PGE2 and PGF2α produced and released into the supernatant were assayed using an EIA kit (produced and sold by Cayman Chemicals, Ann Arbor, Mich., USA).
# (§5) The comparative compounds used were indomethacin (Sigma-Aldrich), a non-steroidal anti-inflammatory drug that inhibits in equal measure both PGE2 and PGF2α, and also the compounds of formula (I) in which R1=CH3CH2, R2=OH, R3=R4=R5=R6=X=Y=H (comparative compound A) and R1=CH3CH2, R2=SCH3, R3=R4=R5=R6=X=Y=H (comparative compound B). […]
# [2] = tested on: production of PGF2α; test: Inhibition of PGF2α production in IL-1β-stimulated A549 cells (EIA); format: cell-based; conditions: Homo sapiens, IL-1β 1 ng/ml, 18 hours; for inhibition at 10 µM: compound 10 μM, na = not active at the experimental concentration; for IC50: negative logarithm of IC50, read-out: pIC50 PGF2α (converted)
# Description: as §1, §2, §3, §4, §5
# [3] = tested on: production of PGI2; test: Test on human primary endothelial cells (HUVEC): inhibition of PGI2 production; format: cell-based; conditions: for Inhibition (%) of PGI2: compound at LogM −5, relative to control
# Experimental: This test allows evaluation of the capability of the compounds of the invention to inhibit the production of PGI2.
# The absence of inhibitory activity on this prostanoid can ensure maintenance of the vasoprotective action of the PGI2 prostanoids and provide useful pharmacological information regarding the absence of adverse side effects on the endothelium.
# The action of the test compounds is evaluated in HUVEC cells under basal conditions and conditions of stimulation (J. Immunol. 1989, Jun. 1; 142(11): 3993-9).
# The results are given as a percentage of inhibition relative to the control enzymatic activity.
# Indomethacin is used as reference compound.
SMILES,IC50 [1] [nM],IC50 [2] [nM],melting point [°C],"IC50 ([3]; Homo sapiens, PGI2, printed as a negative logarithmic figure, read-out: IC50 (comparison compound) (converted)) [nM]",inhibition at 10 µM [1] [%],inhibition at 10 µM [2] [%],Inhibition (%) of PGI2 [3] [%]
"CC(C)n1c2ccccc2c2cc(NC(=O)c3ccccc3Cl)ccc21 [Compound 2, 2-chloro-N-[9-(1-methylethyl)-9H-carbazol-3-yl]benzamide]",794,10000,195,,90,66,31
"Cn1c2ccccc2c2cc(NC(=O)c3ccccc3Cl)ccc21 [Compound 1, 2-chloro-N-(9-methyl-9H-carbazol-3-yl)benzamide]",,,206,,59,27,
"CCn1c2ccccc2c2cc(NC(=O)c3ccccc3O)ccc21 [Compound A, N-(9-ethyl-9H-carbazol-3-yl)-2-hydroxybenzamide, reference compound]",,,,,88,84,
"O=C(Nc1ccc2c(c1)c1ccccc1n2Cc1ccccc1)c1ccccc1Cl [Compound 3, 2-chloro-N-[9-(phenylmethyl)-9H-carbazol-3-yl]benzamide]",1260,> 100000,,,86,7,
"CCn1c2ccccc2c2cc(NC(=O)c3ccccc3C(F)(F)F)ccc21 [Compound 4, N-(9-ethyl-9H-carbazol-3-yl)-2-(trifluoromethyl)benzamide]",631,100000,206 to 207,,67,0,21

# Continued, in another order:
IC50 [1] [nM],IC50 [2] [nM],melting point [°C],"IC50 ([3]; Homo sapiens, PGI2, printed as a negative logarithmic figure, read-out: IC50 (comparison compound) (converted)) [nM]",SMILES,inhibition at 10 µM [1] [%],inhibition at 10 µM [2] [%],Inhibition (%) of PGI2 [3] [%]
5.01,2.51,,10,"COc1ccc2c(c1)c(CC(=O)O)c(C)n2C(=O)c1ccc(Cl)cc1 [indomethacin, reference compound]",100,100,
,,192 to 193,,"CCn1c2ccccc2c2cc(NC(=O)c3c(C)cccc3C)ccc21 [Compound 5, N-(9-ethyl-9H-carbazol-3-yl)-2,6-dimethylbenzamide]",93,60,
